Patent US12227482B2, “Compounds and compositions for the treatment of cancer” (The Regents of the University of California, priority 2016, dated 2025)

How the values were obtained:
Type in all cases: cell-based
Details in all cases: 72 hours treatment, cell survival by CellTiter-Glo, 2% fetal bovine serum
A549 cells = assay: Cell viability (CellTiter-Glo ATP content) in A549 cells
Protocol: (§1) Logarithmically growing A549, LOX and MelJuSo cells (ATCC) were plated in antibiotic-free RPMI medium (Coming) supplemented with 2% fetal bovine serum (Gemini Bio-products) at a density of 5,000 cells per well in clear-bottom 96-well plates. The next day cells were treated (triplicates) with increasing doses of a compound of the present disclosure (dissolved in DMSO) and DMSO vehicle controls (final DMSO concentration of 0.5%) for 72 hours and subsequently assessed for cell viability by measuring ATP content with CellTiter-Glo Luminescent Cell Viability Assay (Promega). Signal intensity was measured on a Glomax™ 96 Microplate Luminometer (Promega) and percent cell survival was calculated based on the reading of vehicle control cells set as 100%.

MelJuSo cells = assay: Cell viability (CellTiter-Glo ATP content) in MelJuSo cells
Protocol: as §1

LOX cells = assay: Cell viability (CellTiter-Glo ATP content) in LOX cells
Protocol: as §1

| Structure (SMILES) | IC50 (A549 cells; Homo sapiens, A549, 72 h) | IC50 (MelJuSo cells; Homo sapiens, MEL-JUSO) | IC50 (LOX cells; LOX, 72 h) | IC50 (A549 cells) | IC50 (MelJuSo cells) | IC50 (LOX cells) |
| --- | --- | --- | --- | --- | --- | --- |
| CCCCC1C(c2ccc(F)cc2)=NN(c2ccc(Cl)cc2C)C1(C)C(=O)NCCCC(C)(C)CO (stereo not drawn) [Compound 29, 4-butyl-1-(4-chloro-2-methylphenyl)-3-(4-fluorophenyl)-N-(5-hydroxy-4,4-dimethylpentyl)-5-methyl-4,5-dihydro-1H-pyrazole-5-carboxamide] | > 2 µM | > 2 µM | > 2 µM |  |  |  |
| CCCCC1C(c2ccc(F)cc2F)=NN(c2ccc(F)cc2F)C1(C)C(=O)NCCOC (stereo not drawn) [Compound 90, 4-butyl-1,3-bis(2,4-difluorophenyl)-N-(2-methoxyethyl)-5-methyl-4,5-dihydro-1H-pyrazole-5-carboxamide] | 0.5 to 1 µM | < 0.25 µM | 0.5 to 1 µM |  |  |  |
| CCCCC1C(c2ccc(F)cc2)=NN(c2ccccc2)C1(C)C(=O)NCCCCCCO (stereo not drawn) [Compound 34, 4-butyl-3-(4-fluorophenyl)-N-(6-hydroxyhexyl)-5-methyl-1-phenyl-4,5-dihydro-1H-pyrazole-5-carboxamide] | > 2 µM | 0.5 to 1 µM | 0.5 to 1 µM |  |  |  |
| CC1(C(=O)NCC(=O)OCCO)C(c2cccs2)C(c2ccc(F)cc2)=NN1c1ccc(F)cc1F (stereo not drawn) [Compound 128, 2-hydroxyethyl 2-(1-(2,4-difluorophenyl)-3-(4-fluorophenyl)-5-methyl-4-(thiophen-2-yl)-4,5-dihydro-1H-pyrazole-5-carboxamido)acetate] | 0.5 to 1 µM | 0.25 to 0.5 µM | 0.5 to 1 µM |  |  |  |
| CCCCC1C(c2ccc(F)cc2)=NN(c2ccccc2)C1(C)C(=O)NCc1cccc(OC)c1OC (stereo not drawn) [Compound 45, 4-butyl-N-(2,3-dimethoxybenzyl)-3-(4-fluorophenyl)-5-methyl-1-phenyl-4,5-dihydro-1H-pyrazole-5-carboxamide] | > 2 µM | > 2 µM | > 2 µM |  |  |  |
| CCCCC1C(c2ccc(F)cc2)=NN(c2ccc(F)cc2F)C1(C)C(=O)N(C)CCCOC (stereo not drawn) [Compound 26, 4-butyl-1-(2,4-difluorophenyl)-3-(4-fluorophenyl)-N-(3-methoxypropyl)-N,5-dimethyl-4,5-dihydro-1H-pyrazole-5-carboxamide] | > 2 µM | > 2 µM | > 2 µM |  |  |  |
| CCCCC1C(c2ccc(F)cc2)=NN(c2ccccc2)C1(C)C(=O)NCc1cccc(Cl)c1 (stereo not drawn) [Compound 39, 4-butyl-N-(3-chlorobenzyl)-3-(4-fluorophenyl)-5-methyl-1-phenyl-4,5-dihydro-1H-pyrazole-5-carboxamide] | > 2 µM | > 2 µM | > 2 µM |  |  |  |
| COCCNC(=O)C1(C)C(c2ccc(Cl)s2)C(c2ccc(F)cc2)=NN1c1ccc(F)cc1F (stereo not drawn) [Compound 102, 4-(5-chlorothiophen-2-yl)-1-(2,4-difluorophenyl)-3-(4-fluorophenyl)-N-(2-methoxyethyl)-5-methyl-4,5-dihydro-1H-pyrazole-5-carboxamide] | 1 to 2 µM | 0.25 to 0.5 µM | 0.5 to 1 µM |  |  |  |
| CCCCC1C(c2ccc(F)cc2)=NN(c2ccccc2)C1(C)C(=O)NCCCCO (stereo not drawn) [Compound 35, 4-butyl-3-(4-fluorophenyl)-N-(4-hydroxybutyl)-5-methyl-1-phenyl-4,5-dihydro-1H-pyrazole-5-carboxamide] | > 2 µM | 1 to 2 µM | 1 to 2 µM |  |  |  |
| CCCCC1C(c2ccc(F)cc2)=NN(c2ccccc2)C1(C)C(=O)NCc1cccs1 (stereo not drawn) [Compound 67, 4-butyl-3-(4-fluorophenyl)-5-methyl-1-phenyl-N-(thiophen-2-ylmethyl)-4,5-dihydro-1H-pyrazole-5-carboxamide] | > 2 µM | > 2 µM | > 2 µM |  |  |  |
| CC(C)(O)CNC(=O)CNC(=O)C1(C)C(c2cccs2)C(c2ccc(F)cc2)=NN1c1ccc(F)cc1F (stereo not drawn) [Compound 104, 1-(2,4-difluorophenyl)-3-(4-fluorophenyl)-N-(2-(2-hydroxy-2-methylpropylamino)-2-oxoethyl)-5-methyl-4-(thiophen-2-yl)-4,5-dihydro-1H-pyrazole-5-carboxamide] | > 2 µM | 0.5 to 1 µM | 1 to 2 µM |  |  |  |
| CCCCC1C(c2ccc(F)cc2)=NN(c2ccc(F)cc2F)C1(C)C(=O)NCCCC(C)(C)CO (stereo not drawn) [Compound 3, 4-butyl-1-(2,4-difluorophenyl)-3-(4-fluorophenyl)-N-(5-hydroxy-4,4-dimethylpentyl)-5-methyl-4,5-dihydro-1H-pyrazole-5-carboxamide] | 0.5 to 1 µM | 0.5 to 1 µM | 0.5 to 1 µM |  |  |  |
| CCCCC1C(c2ccc(F)cc2)=NN(c2ccc(Cl)cc2)C1(C)C(=O)NCCCC(C)(C)CO (stereo not drawn) [Compound 12, 4-butyl-1-(4-chlorophenyl)-3-(4-fluorophenyl)-N-(5-hydroxy-4,4-dimethylpentyl)-5-methyl-4,5-dihydro-1H-pyrazole-5-carboxamide] | > 2 µM | 1 to 2 µM | 1 to 2 µM |  |  |  |
| CCCCC1C(c2ccc(F)cc2)=NN(c2ccccc2)C1(C)C(=O)NCCCN1CCCCC1 (stereo not drawn) [Compound 71, 4-butyl-3-(4-fluorophenyl)-5-methyl-1-phenyl-N-(3-(piperidin-1-yl)propyl)-4,5-dihydro-1H-pyrazole-5-carboxamide] | > 2 µM | > 2 µM | > 2 µM |  |  |  |
| COCCNC(=O)C1(C)C(c2ccsc2)C(c2ccc(F)cc2)=NN1c1ccc(F)cc1F (stereo not drawn) [Compound 86, 1-(2,4-difluorophenyl)-3-(4-fluorophenyl)-N-(2-methoxyethyl)-5-methyl-4-(thiophen-3-yl)-4,5-dihydro-1H-pyrazole-5-carboxamide] | < 0.25 µM | < 0.25 µM | < 0.25 µM |  |  |  |
| COCCNC(=O)C1(C)C(c2ccoc2)C(c2ccc(F)cc2F)=NN1c1ccc(F)cc1F (stereo not drawn) [Compound 130, 1,3-bis(2,4-difluorophenyl)-4-(furan-3-yl)-N-(2-methoxyethyl)-5-methyl-4,5-dihydro-1H-pyrazole-5-carboxamide] | > 2 µM | 0.5 to 1 µM | > 2 µM |  |  |  |
| CCCCC1C(c2ccc(F)cc2)=NN(c2ccccc2)C1(C)C(=O)NCC1CCCCO1 (stereo not drawn) [Compound 68, 4-butyl-3-(4-fluorophenyl)-5-methyl-1-phenyl-N-((tetrahydro-2H-pyran-2-yl)methyl)-4,5-dihydro-1H-pyrazole-5-carboxamide] | > 2 µM | 0.5 to 1 µM | 1 to 2 µM |  |  |  |
| COC(=O)CNC(=O)C1(C)C(c2ccc(Cl)o2)C(c2ccc(F)cc2F)=NN1c1ccc(F)cc1F (stereo not drawn) [Compound 134, methyl 2-(4-(5-chlorofuran-2-yl)-1,3-bis(2,4-difluorophenyl)-5-methyl-4,5-dihydro-1H-pyrazole-5-carboxamido)acetate] |  |  |  | < 0.25 µM | < 0.25 µM | < 0.25 µM |
| COC(=O)CNC(=O)C1(C)C(c2ccoc2)C(c2ccc(F)cc2F)=NN1c1ccc(F)cc1F (stereo not drawn) [Compound 131, methyl 2-(1,3-bis(2,4-difluorophenyl)-4-(furan-3-yl)-5-methyl-4,5-dihydro-1H-pyrazole-5-carboxamido)acetate] | 0.5 to 1 µM | 0.25 to 0.5 µM | 0.5 to 1 µM |  |  |  |
| CCCCC1C(c2ccc(Cl)cc2)=NN(c2ccccc2)C1(C)C(=O)NCCOC (stereo not drawn) [Compound 58, 4-butyl-3-(4-chlorophenyl)-N-(2-methoxyethyl)-5-methyl-1-phenyl-4,5-dihydro-1H-pyrazole-5-carboxamide] | > 2 µM | 1 to 2 µM | 1 to 2 µM |  |  |  |
| COCCNC(=O)C1(C)C(c2ccco2)C(c2ccc(F)cc2)=NN1c1ccc(F)cc1F (stereo not drawn) [Compound 92, 1-(2,4-difluorophenyl)-3-(4-fluorophenyl)-4-(furan-2-yl)-N-(2-methoxyethyl)-5-methyl-4,5-dihydro-1H-pyrazole-5-carboxamide] | < 0.25 µM | < 0.25 µM | < 0.25 µM |  |  |  |
| CCCCC1C(c2ccc(F)cc2)=NN(c2ccc(C)cc2)C1(C)C(=O)NCCCC(C)(C)CO (stereo not drawn) [Compound 15, 4-butyl-3-(4-fluorophenyl)-N-(5-hydroxy-4,4-dimethylpentyl)-5-methyl-1-p-tolyl-4,5-dihydro-1H-pyrazole-5-carboxamide] | 1 to 2 µM | 0.25 to 0.5 µM | 0.25 to 0.5 µM |  |  |  |
| CC1(C(=O)NCCN2CCOCC2)C(c2cccs2)C(c2ccc(F)cc2)=NN1c1ccc(F)cc1F (stereo not drawn) [Compound 126, 1-(2,4-difluorophenyl)-3-(4-fluorophenyl)-5-methyl-N-(2-morpholinoethyl)-4-(thiophen-2-yl)-4,5-dihydro-1H-pyrazole-5-carboxamide] | > 2 µM | > 2 µM | > 2 µM |  |  |  |
| CCCCC1C(c2ccc(F)cc2)=NN(c2ccccc2)C1(C)C(=O)NCC(C)N(C)C (stereo not drawn) [Compound 76, 4-butyl-N-(2-(dimethylamino)propyl)-3-(4-fluorophenyl)-5-methyl-1-phenyl-4,5-dihydro-1H-pyrazole-5-carboxamide] | > 2 µM | > 2 µM | > 2 µM |  |  |  |
| CC(C)(CO)CCCNC(=O)C1(C)C(c2ccco2)C(c2ccc(F)cc2F)=NN1c1ccc(F)cc1F (stereo not drawn) [Compound 115, 1,3-bis(2,4-difluorophenyl)-4-(furan-2-yl)-N-(5-hydroxy-4,4-dimethylpentyl)-5-methyl-4,5-dihydro-1H-pyrazole-5-carboxamide] | 0.5 to 1 µM | 0.25 to 0.5 µM | 0.5 to 1 µM |  |  |  |
| CCCCC1C(c2ccc(F)cc2)=NN(c2cc(F)ccc2F)C1(C)C(=O)NCCCCC(C)(C)O (stereo not drawn) [Compound 9, 4-butyl-1-(2,5-difluorophenyl)-3-(4-fluorophenyl)-N-(5-hydroxy-5-methylhexyl)-5-methyl-4,5-dihydro-1H-pyrazole-5-carboxamide] | 1 to 2 µM | 0.5 to 1 µM | 0.5 to 1 µM |  |  |  |
